Data on 27 compounds can be found in US11530200B2, “Compounds” (Inflazome Limited, priority 2018, dated 2022).

The test addresses NLRP3 (Homo sapiens (Human), UniProt Q96P20). Nature of the test: THP-1 cells pyroptosis assay (LPS priming, nigericin, resazurin readout). It is filed as cell-based. Conditions: 1.0 μg/ml LPS, nigericin 5 μM, NLRP3 inhibitory activity. The protocol:
THP-1 cells (ATCC #TIB-202) were grown in RPMI containing L-glutamine (Gibco #11835) supplemented with 1 mM sodium pyruvate (Sigma #S8636) and penicillin (100 units/ml)/streptomycin (0.1 mg/ml) (Sigma #P4333) in 10% Fetal Bovine Serum (FBS) (Sigma #F0804). The cells were routinely passaged and grown to confluency (10^6 cells/ml). On the day of the experiment, THP-1 cells were harvested and resuspended into RPMI medium (without FBS). The cells were then counted and viability (>90%) checked by Trypan blue (Sigma #T8154). Appropriate dilutions were made to give a concentration of 625,000 cells/ml. To this diluted cell solution was added LPS (Sigma #L4524) to give a 1 μg/ml Final Assay Concentration (FAC). 40 μl of the final preparation was aliquoted into each well of a 96-well plate. The plate thus prepared was used for compound screening. The following method step-by-step assay was followed for compound screening. • 1. Seed THP-1 cells (25,000 cells/well) containing 1.0 μg/ml LPS in 40 μl of RPMI medium (without FBS) in 96-well, black walled, clear bottom cell culture plates coated with poly-D-lysine (VWR #734-0317) • 2. Add […] compound (8 points half-log dilution, with […] top dose) or vehicle (DMSO 0.1% FAC) to the appropriate wells • 3. Incubate for 3 hrs at 37° C., 5% CO2 • 4. Add 5 μl nigericin (Sigma #N7143) (FAC 5 μM) to all wells • 5. Incubate for 1 hr at 37° C., 5% CO2 • 6. At the end of the incubation period, spin plates at 300×g for 3 mins and remove supernatant • 7. Then add 50 μl of resazurin (Sigma #R7017) (FAC 100 μM resazurin in RPMI medium without FBS) and incubate plates for a further 1-2 hrs at 37° C. and 5% CO2 • 8. Plates were read in an Envision reader at Ex 560 nm and Em 590 nm • 9. IC50 data is fitted to a non-linear regression equation (log inhibitor vs response-variable slope 4-parameters) The results of the pyroptosis assay are summarised in Table 1 below as THP IC50.
In general terms: Alamar Blue is a resazurin reagent that responds to reducing activity.

Each structure is given as a SMILES string. Where a name gives a salt, the structure may show the parent alone. A value given as a limit tells only on which side of the number the result lay.

NLRP3, sequence (Q96P20 whole entry): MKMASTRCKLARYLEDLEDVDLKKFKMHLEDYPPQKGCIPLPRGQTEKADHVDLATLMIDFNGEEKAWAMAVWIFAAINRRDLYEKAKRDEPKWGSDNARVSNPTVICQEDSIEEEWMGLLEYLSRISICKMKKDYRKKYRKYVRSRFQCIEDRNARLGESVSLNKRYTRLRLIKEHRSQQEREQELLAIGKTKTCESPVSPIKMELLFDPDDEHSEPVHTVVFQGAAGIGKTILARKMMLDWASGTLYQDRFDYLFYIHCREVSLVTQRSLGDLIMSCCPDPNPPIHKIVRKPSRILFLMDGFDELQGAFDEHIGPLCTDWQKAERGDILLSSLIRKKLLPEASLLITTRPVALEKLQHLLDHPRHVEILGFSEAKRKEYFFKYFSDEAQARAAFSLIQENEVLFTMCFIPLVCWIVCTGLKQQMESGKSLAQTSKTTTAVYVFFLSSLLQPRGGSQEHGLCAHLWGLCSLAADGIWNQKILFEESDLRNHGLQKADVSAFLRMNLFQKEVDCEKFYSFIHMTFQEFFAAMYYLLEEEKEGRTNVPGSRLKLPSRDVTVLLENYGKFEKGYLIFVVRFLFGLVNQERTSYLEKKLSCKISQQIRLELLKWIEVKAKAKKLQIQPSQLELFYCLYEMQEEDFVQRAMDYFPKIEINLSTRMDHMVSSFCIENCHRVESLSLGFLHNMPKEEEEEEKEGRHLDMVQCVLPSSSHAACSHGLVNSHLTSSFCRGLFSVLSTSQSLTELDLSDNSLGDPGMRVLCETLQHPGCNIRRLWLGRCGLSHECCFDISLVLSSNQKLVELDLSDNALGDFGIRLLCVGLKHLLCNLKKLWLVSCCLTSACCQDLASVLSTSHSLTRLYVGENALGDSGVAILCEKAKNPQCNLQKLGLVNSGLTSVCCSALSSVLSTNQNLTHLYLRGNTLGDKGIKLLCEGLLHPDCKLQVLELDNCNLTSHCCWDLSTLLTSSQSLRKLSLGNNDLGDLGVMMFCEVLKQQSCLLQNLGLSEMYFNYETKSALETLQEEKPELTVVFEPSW

For orientation: IC50 means the midpoint of a concentration-inhibition curve. `CC(C)c1cc(F)cc(-c2cccnc2)c1CC(=O)NS(=O)(=O)c1cnn(C2CC2)n1` [Example 27, N-((2-Cyclopropyl-2H-1,2,3-triazol-4-yl)sulfonyl)-2-(4-fluoro-2-isopropyl-6-(pyridin-3-yl)phenyl)acetamide]: the IC50 was 1 to 5 µM. `CC(C)c1cc(F)cc(C(C)C)c1CC(=O)NS(=O)(=O)c1cn(C2CC2)cn1` [Example 28, N-((1-Cyclopropyl-1H-imidazol-4-yl)sulfonyl)-2-(4-fluoro-2,6-diisopropylphenyl)acetamide]: the IC50 was 1 to 5 µM. Next, `CC(C)c1cc(F)cc(C(C)C)c1CC(=O)NS(=O)(=O)c1cc(CN(C)C)n(C2CC2)n1` [Example 16, N-((1-Cyclopropyl-5-((dimethylamino)methyl)-1H-pyrazol-3-yl)sulfonyl)-2-(4-fluoro-2,6-diisopropylphenyl)acetamide]: 1 to 5 µM. In turn, `CC(C)c1cc(F)cc(-c2cccnc2)c1CC(=O)NS(=O)(=O)c1ncn(C2CC2)n1` [Example 22, N-((1-Cyclopropyl-1H-1,2,4-triazol-3-yl)sulfonyl)-2-(4-fluoro-2-isopropyl-6-(pyridin-3-yl)phenyl)acetamide] showed an IC50 of 1 to 5 µM.

In the case of `COc1cc(-c2cc(F)cc(C(C)C)c2C(O)C(=O)NS(=O)(=O)c2cnn(C3CC3)c2)ccn1` (stereo not drawn) [Example 10, N-((1-Cyclopropyl-1H-pyrazol-4-yl)sulfonyl)-2-(4-fluoro-2-isopropyl-6-(2-methoxypyridin-4-yl)phenyl)-2-hydroxyacetamide], the IC50 was in the range of 5 to 10 µM. For `CC(C)c1cc(F)cc(C(C)C)c1CC(=O)NS(=O)(=O)c1cnn(C2CC2)n1` [Example 26, N-((2-Cyclopropyl-2H-1,2,3-triazol-4-yl)sulfonyl)-2-(4-fluoro-2,6-diisopropylphenyl)acetamide], the IC50 was in the range of 1 to 5 µM. The value for `CC(C)c1cc(F)cc(C(C)C)c1CC(=O)NS(=O)(=O)c1ncn(C2CC2)n1` [Example 25, N-((1-Cyclopropyl-H-1,2,4-triazol-3-yl)sulfonyl)-2-(4-fluoro-2,6-diisopropylphenyl)acetamide] was 5 to 10 µM; that for `COc1cc(-c2ccc3c(c2CC(=O)NS(=O)(=O)c2ccn(C4CC4)n2)CCC3)ccn1` [Example 17, N-((1-Cyclopropyl-1H-pyrazol-3-yl)sulfonyl)-2-(5-(2-methoxypyridin-4-yl)-2,3-dihydro-1H-inden-4-yl)acetamide] was 1 to 5 µM; that for `CC(C)c1cc(F)cc(-c2ccnc(C#N)c2)c1CC(=O)NS(=O)(=O)c1cnn(C2CC2)n1` [Example 7, 2-(2-(2-Cyanopyridin-4-yl)-4-fluoro-6-isopropylphenyl)-N-((2-cyclopropyl-2H-1,2,3-triazol-4-yl)sulfonyl)acetamide] was 5 to 10 µM.

With `COc1cc(-c2cc(F)cc(C(C)C)c2CC(=O)NS(=O)(=O)c2ccn(C3CC3)n2)ccn1` [Example 4, N-((1-Cyclopropyl-1H-pyrazol-3-yl)sulfonyl)-2-(4-fluoro-2-isopropyl-6-(2-methoxypyridin-4-yl)phenyl)acetamide], the IC50 fell in the range of 1 to 5 µM. Compound `CC(C)c1cc(F)cc(-c2ccncc2)c1CC(=O)NS(=O)(=O)c1ccn(C2CC2)n1` [Example 2, N-((1-Cyclopropyl-1H-pyrazol-3-yl)sulfonyl)-2-(4-fluoro-2-isopropyl-6-(pyridin-4-yl)phenyl)acetamide, potassium salt] yielded an IC50 not above 1 µM. Regarding `CC(C)c1cc(F)cc(-c2ccnc(C#N)c2)c1CC(=O)NS(=O)(=O)c1cn(C2CC2)cn1` [Example 31, 2-(2-(2-Cyanopyridin-4-yl)-4-fluoro-6-isopropylphenyl)-N-((1-cyclopropyl-1H-imidazol-4-yl)sulfonyl)acetamide], the 50% inhibitory concentration (IC50) was in the range of 5 to 10 µM. The value for `O=C(Cc1c2c(cc3c1CCC3)CCC2)NS(=O)(=O)c1ccn(C2CC2)n1` [Example 19, N-((1-Cyclopropyl-1H-pyrazol-3-yl)sulfonyl)-2-(1,2,3,5,6,7-hexahydro-s-indacen-4-yl)acetamide] was 5 to 10 µM; that for `COC1(c2cc(S(=O)(=O)NC(=O)Cc3c4c(cc5c3CCC5)CCC4)nn2C(C)C)COC1` [Example 12, 2-(1,2,3,5,6,7-Hexahydro-s-indacen-4-yl)-N-((1-isopropyl-5-(3-methoxyoxetan-3-yl)-1H-pyrazol-3-yl)sulfonyl)acetamide] was 1 to 5 µM; that for `N#Cc1cc(-c2ccc3c(c2CC(=O)NS(=O)(=O)c2ccn(C4CC4)n2)CCC3)ccn1` [Example 1, 2-(5-(2-Cyanopyridin-4-yl)-2,3-dihydro-1H-inden-4-yl)-N-((1-cyclopropyl-1H-pyrazol-3-yl)sulfonyl)acetamide] was 1 to 5 µM. Next, `COC1(c2cc(S(=O)(=O)NC(=O)Cc3c(C(C)C)cc(F)cc3C(C)C)nn2C(C)C)COC1` [Example 29, 2-(4-Fluoro-2,6-diisopropylphenyl)-N-((1-isopropyl-5-(3-methoxyoxetan-3-yl)-1H-pyrazol-3-yl)sulfonyl)acetamide]: 1 to 5 µM; `COc1cc(-c2ccc3c(c2CC(=O)NS(=O)(=O)c2cnn(C4CC4)c2)CCC3)ccn1` [Example 23, N-((1-Cyclopropyl-H-pyrazol-4-yl)sulfonyl)-2-(5-(2-methoxypyridin-4-yl)-2,3-dihydro-1H-inden-4-yl)acetamide]: 1 to 5 µM. The value for `CC(C)c1cc(F)cc(-c2ccnc(C#N)c2)c1CC(=O)NS(=O)(=O)c1cnn(C2CC2)c1` [Example 9, 2-(2-(2-Cyanopyridin-4-yl)-4-fluoro-6-isopropylphenyl)-N-((1-cyclopropyl-1H-pyrazol-4-yl)sulfonyl)acetamide] was 5 to 10 µM; that for `COC1(c2cc(S(=O)(=O)NC(=O)Cc3c(-c4ccnc(C#N)c4)ccc4c3CCC4)nn2C(C)C)COC1` [Example 13, 2-(5-(2-Cyanopyridin-4-yl)-2,3-dihydro-1H-inden-4-yl)-N-((1-isopropyl-5-(3-methoxyoxetan-3-yl)-1H-pyrazol-3-yl)sulfonyl)acetamide, potassium salt] was 5 to 10 µM.

For the compound `CC(C)c1cc(F)cc(-c2cccnc2)c1CC(=O)NS(=O)(=O)c1cn(C2CC2)cn1` [Example 6, N-((1-Cyclopropyl-1H-imidazol-4-yl)sulfonyl)-2-(4-fluoro-2-isopropyl-6-(pyridin-3-yl)phenyl)acetamide], the IC50 lay within 5 to 10 µM.

`N#Cc1cc(-c2ccc3c(c2CC(=O)NS(=O)(=O)c2cnn(C4CC4)c2)CCC3)ccn1` [Example 30, 2-(5-(2-Cyanopyridin-4-yl)-2,3-dihydro-H-inden-4-yl)-N-((1-cyclopropyl-1H-pyrazol-4-yl)sulfonyl)acetamide] displayed a concentration for half-maximal inhibition (IC50) of 5 to 10 µM. Compound `COC1(c2cc(S(=O)(=O)NC(=O)Cc3c4c(cc5c3CCC5)CCC4)nn2C2CC2)COC1` [Example 14, N-((1-Cyclopropyl-5-(3-methoxyoxetan-3-yl)-1H-pyrazol-3-yl)sulfonyl)-2-(1,2,3,5,6,7-hexahydro-s-indacen-4-yl)acetamide] showed an IC50 of 1 to 5 µM.

`COc1cc(-c2ccc3c(c2CC(=O)NS(=O)(=O)c2cnn(C4CC4)n2)CCC3)ccn1` [Example 5, N-((2-Cyclopropyl-2H-1,2,3-triazol-4-yl)sulfonyl)-2-(5-(2-methoxypyridin-4-yl)-2,3-dihydro-1H-inden-4-yl)acetamide] had an IC50 of 5 to 10 µM. `CC(c1cc(S(=O)(=O)NC(=O)Cc2c3c(cc4c2CCC4)CCC3)nn1C1CC1)N(C)C` (stereo not drawn) [Example 15, N-((1-Cyclopropyl-5-(1-(dimethylamino)ethyl)-1H-pyrazol-3-yl)sulfonyl)-2-(1,2,3,5,6,7-hexahydro-s-indacen-4-yl)acetamide] came in with an IC50 of 1 to 5 µM. Regarding `COc1cc(-c2cc(F)cc(C(C)C)c2CC(=O)NS(=O)(=O)c2cnn(C3CC3)n2)ccn1` [Example 20, N-((2-Cyclopropyl-2H-1,2,3-triazol-4-yl)sulfonyl)-2-(4-fluoro-2-isopropyl-6-(2-methoxypyridin-4-yl)phenyl)acetamide], the IC50 is 1 to 5 µM.

As to `COc1cc(-c2cc(F)cc(C(C)C)c2CC(=O)NS(=O)(=O)c2cn(C3CC3)cn2)ccn1` [Example 3, N-((1-Cyclopropyl-1H-imidazol-4-yl)sulfonyl)-2-(4-fluoro-2-isopropyl-6-(2-methoxypyridin-4-yl)phenyl)acetamide], the IC50 is 1 to 5 µM. Next, `N#Cc1cc(-c2ccc3c(c2CC(=O)NS(=O)(=O)c2cnn(C4CC4)n2)CCC3)ccn1` [Example 8, 2-(5-(2-Cyanopyridin-4-yl)-2,3-dihydro-1H-inden-4-yl)-N-((2-cyclopropyl-2H-1,2,3-triazol-4-yl)sulfonyl)acetamide]: 1 to 5 µM.
